The source of these data is patent publication US20220323536A1, “USE OF BETA-L-ASPARTYL-L-ARGININE ON SENESCENT SKIN” (SYMRISE AG, priority 2019, published 2022).

The subject of series [1] is senescent fibroblasts. Description: Reduction of nucleus to cell size (N/C) ratio in senescent fibroblasts (in vitro study). It is filed as cell-based. The settings on record: vs untreated senescent fibroblasts; FIG. 4. How it is done: (§1) Senescent cells were incubated with β-L-aspartyl-L-arginine. Cell size and nuclear size were measured while cell density reflects the viability. […] See example 4 for the details of experimental procedure.
(§2) The cells were treated with β-L-aspartyl-L-arginine for 5 days. The cell images were taken after incubation. In order to label the nuclear and mitochondrial DNA, the cells were incubated with a fluorescent dye for 30 minutes. After removal of the dye, the images were taken with an epifluorescence microscope. Image analysis was performed in a 3-fold determination. Sampling 10 pictures per experimental condition or repetition, respectively.
(§3) Data collection: The images were taken with a Zeiss axioplan microscope. Image analysis was performed with a software developed by ICDD.
(§4) Data interpretation: The following data was collected: average cell size, mtDNA content, mitochondrial density, mitochondrial biogenesis, mitochondrial mass and cell nucelus size. The average cell number per field was used as control of cell viability for each experimental condition. The effect of active substances was also given as protective effect in comparison to non-treated cells. The effect of the positive control was included for comparison.

A short description of series [2]: Improvement of skin firmness and elasticity (clinical study, cutometer). The format is in vivo, human. How it is done:
(§5) The study was conducted with 26 female volunteers of age 53 +/−3 years. The application was done twice daily for two months. On one side of the face, the product is applied, on the other side the placebo.
The method of measurement relies on suction. A vacuum is created in the gauge head of the cutometer, which sucks the skin into the measuring device. An optical arrangement, consisting of a light source and a light detector, measures the light intensity, which enters dependent on how much skin is sucked in. The resulting parameters are elasticity and skin firmness.
Skin firmness represents the resistance, which the skin creates against the suction by the vacuum. Elasticity, is the time, which the skin needs to return to its original state.

Series [3] relates to human skin explants. Description: Protection against carbonylation of proteins (ex vivo study). It is filed as cell-based. The settings on record: UV stimulated skin treated with 0.2% and 0.5%, vs untreated UV stimulated skin; FIG. 9. How it is done:
Detection of carbonylation: After removing the fatty and connective tissue, the frozen skin samples are weighed and cut. The skin pieces of the tested samples are combined and homogenized in a cold extraction buffer. Cell lysates are collected by centrifugation.
The measurement of the carbonylated protein is performed with the “OxyBlot Protein_Oxidation Kit by Millipore”, (#S7150) according to the protocol of the producer. Only the protein bands of a size between 50 kDa and 150 kDa were taken into account for the calculation. The obtained amount of carbonylated protein is normalized with the actin band (which is constant) and given with respect to the non-treated sample.

A further series deals with fibronectin. Description: Stimulation of fibronectin proteins in the dermis (ex vivo study). The settings on record: 4 μl topically every day during 6 days, vs untreated skin; FIG. 7. The format is cell-based. On the procedure:
(§6) 4 μl of β-L-aspartyl-L-arginine were applied on the skin every day during 6 days of treatment at 37° C., 5% CO2 and 100% humidity. 12 skin cuts were immunohistochemically stained with selected antibodies. The papillary dermis was selected for the analysis because it is the part of the dermis, which changes the most in reaction to a previous treatment.
(§7) The area to be analyzed was carefully selected while it was made sure that irregular structures such as blood vessels, sweat glands or hair follicles were avoided.
(§8) For the assessment of the results, both, the color intensity and the color distribution were measured using Image-J analysis software (NIH, USA)—thus a semi-quantitative assessment was possible.

Series [4] deals with senescent fibroblasts. Description: Reduction of mitochondrial DNA (mtDNA) in senescent fibroblasts (in vitro study). The settings on record: 5 days treatment; FIG. 5. The format is cell-based. On the procedure: Disruptions of the nuclear and mitochondrial DNA were studied, analyzed by detecting nucleus fragments, the mitochondrial DNA content, the mitochondrial mass and the average cell density, the latter as representation of viability.
as §2, §3, §4

For series [5], the system named is senescent fibroblasts. Description: Reduction of mitochondrial ROS in senescent fibroblasts (in vitro study). The format is cell-based. How it is done: Using a fluorescent dye, the antioxidative potential of β-L-aspartyl-L-arginine with respect to mitochondrial reactive oxygen species (ROS) was quantified. Senescent cells were incubated with β-L-aspartyl-L-arginine for 24 hours. Subsequently, the treated and non-treated senescent cells as well as the treated and non-treated non-senescent cells were incubated with the fluorescent dye for 30 minutes at 37° C. After washing, a portion of the non-senescent cells was treated with the oxidative reference substance H2O2 (100 μM). The mitochondrial ROS production was measured immediately every 5 mins over a period of 60 minutes. A microtiter plate reader (Varioskan-Thermo) was used as measuring device. During the kinetic measurement, the cells were further incubated at 37° C. Using fluorimetry, the antioxidative activity was measured in parallel with the viability of the cell. The experiments comprised a blank as well as a negative and a positive control. The positive control consists of […]. […] Senescent cells treated with resveratrol were used as reference for the comparison of the activity of β-L-aspartyl-L-arginine in the decrease of endogenous production of mitochondrial ROS in senescent cells. β-L-aspartyl-L-arginine was measured in a 4-fold measurement. […]

Series [6] concerns human skin explants. Description: Reduction of ROS score after UVA irradiation on human skin explants (ex vivo study). The format is cell-based. The settings on record: topical, 18 h incubation, vs untreated UV irradiated skin, FIG. 6. The source says:
Cultivation of skin models: The skin was cut into about 8×3 mm large pieces (diameter×layer thickness of the models) and cultivated until the planned end of the experiment. Per treatment, six models each were used. The skin models were cultivated as air-liquid-interface cultures in a perforated stainless steel ring with contact to the culture medium (modified Williams 'E Medium) until the desired endpoint.
Treatment: Test substances and controls were applied topically. To this end, the skin models were carefully cleaned with a cotton pad. Subsequently, 4 μL of each test substance or the control, respectively, were applied to the models and covered with a membrane filter (diameter=6 mm).
The skin models were incubated for 18 h with test substance and positive control, respectively. […]
UV-irradiation: The used sun simulator was a BIO-SUN-system from the company Vilber Lourmat. […] The UV-light emission is constantly monitored and the system stops automatically when the pre-set energy quantity is reached. […]
Of each skin model, two samples were used for image capture with the fluorescence analysis. Each picture was analyzed by determining the fluorescence using Image-J analysis software (NIH, USA). The measured values were normalized over the size of the selected surface.
Statistics: For each treatment of the skin models, the averages of the quantitative data was determined. […]

Series [7] concerns senescent fibroblasts. Description: Reduction of cell size in senescent fibroblasts (in vitro study). It is filed as cell-based. The settings on record: amounts of more than 1.0 mM, vs untreated senescent fibroblasts; FIG. 3. How it is done: as §1, §2, §3, §4
In another series the test system is collagen Typ III. Description: Stimulation of collagen Type III (ex vivo study). The settings on record: vs untreated skin; FIG. 12. The format is cell-based. On the procedure:
as §6, §7, §8

A short description of series [8]: Solubility and stability of the powder. It is filed as physicochemical.
Series [9] can be described thus: Reduction of wrinkle intensity (clinical study). The format is in vivo, human. On the procedure: as §5
Imaging: The evaluation is based on high-resolution digital photography under controlled conditions. Pictures were taken at the start of the study, after 28 days and after 56 days of product application.
The subjects were positioned in front of the optical arrangement and the face was photographed as portrait or close-up. The persons were photographed seated at controlled lighting. The conditions were kept constant during all photographs to ensure comparability.
Reduction of wrinkles and lines: The assessment of wrinkles and lines was done in a limited area around the eye of the subject. The intensity of the wrinkles and lines was measured as parameter R. The larger the value for R, the more pronounced are the wrinkles and lines. The relative reduction of wrinkles is calculated according to the following formula:
R%=100(Ri−RF)/Ri(R=wrinkle intensity, i=initial; f=final)
Data analysis and interpretation: For data analysis the following software packages were used: […]

[10] abbreviates: after eight weeks, twice daily use of 0.1%.

On to `N=C(N)NCCC[C@H](NC(=O)C[C@H](N)C(=O)O)C(=O)O` [β-L-aspartyl-L-arginine], for which the “nucleus to cell size ratio in senescent fibroblasts” value with senescent fibroblasts [1] is “reduced compared to untreated senescent fibroblasts”. Also, in [2] (setting [10]), the “enhancement of skin elasticity compared to the placebo” value is on record as “+8.5%”, the “enhancement of skin firmness compared to the placebo” value is given as “+10.1%”, the “volunteers with significant enhancement of skin elasticity” value was determined as 100% and the “volunteers with significant enhancement of skin firmness” value is on record as 92%. Moreover, the skin firmness result in series [2] (four weeks of twice daily use of 0.1%, FIG. 10) is “visibly improves skin firmness”. In addition, in series [2] (four weeks of twice daily use of 0.1%, FIG. 11), the skin elasticity result is given as “visibly improves skin elasticity”. Moreover, in the series on human skin explants [3], the “formation of carbonylated proteins” value is on record as “prevent the formation of carbonylated proteins”. Besides, in the series on fibronectin, the “fibronectin production in the dermis” value was “stimulate the fibronectin production”. The “mtDNA in senescent cells” value with senescent fibroblasts [4] is given as “reduced by β-L-aspartyl-L-arginine to an amount comparable to young replicative cells”. The “mitochondrial ROS (mtROS)” value in the series on senescent fibroblasts [5] (10 μM, 24 hours incubation, senescent cells vs non-treated senescent cells, FIG. 1) was “significant reduction of mitochondrial ROS”. In addition, the “dosage dependence of the mtROS reduction effect” value with senescent fibroblasts [5] (values with respect to untreated senescent cells = 100%, FIG. 2) is on record as “Increasing amounts of β-L-aspartyl-L-arginine show a larger reduction”. In addition, in the series on human skin explants [6], the “ROS score of UV irradiated skin (dermis)” value is “significantly reduces the ROS score”. In addition, the “cell size of senescent fibroblasts” value with senescent fibroblasts [7] is reported as “reduce cell size”. Also, in the series with collagen Typ III, the “collagen Typ III production” value was “stimulate the collagen Typ III production”. Also, the stability entry in series [8] (pH from 5 to 9, up to 50° C.) is “stable at a pH from 5 to 9 at up to 50 °C”. Moreover, in [8] (white, odorless powder), the water solubility result is given as “water soluble”. In addition, the “volunteers with significant reduction of wrinkle intensity” value in series [9] (setting [10]) amounted to 85%. For the same compound, in series [9] (after eight weeks, twice daily use of 0.1%, 26 female volunteers), the “reduction of wrinkle intensity compared to a placebo” value worked out at 6.8%. Besides, the “wrinkles and fine lines on crow feet” value in series [9] (four weeks of twice daily use of 0.1%, FIG. 8) is “visibly smoothes wrinkles and fine lines”.
